From patent US20260345595A1, “NOVEL FLUORENE DERIVATIVE COMPOUND AND USE THEREOF” (JD BIOSCIENCE INC., priority 2022, published 2026) come the findings set out here.

The subject of this experiment is PDHE1α S293. Put plainly: In vitro PDH S293 phosphorylation inhibition, Western blot in HEK293 cells. The note with it: Homo sapiens, 5 hours. It counts as cell-based. As to the method: HEK293 cells, which are human embryonic kidney cells, were seeded at a density of 2×10^6 in a 60 mm dish, and cultured for 24 hours. After replacing the medium with a medium comprising 0.5% FBS, the compounds prepared according to Examples 1 to 54 were treated at various concentrations. 5 hours later, the cells were scraped off and collected into a 15 ml conical tube and centrifuged at 1500 rpm for 10 minutes. The supernatant was discarded, the resultant was washed with 1×PBS, and transferred to a 1.5 mL e-tube, followed by centrifugation at 10,000 rpm for 5 minutes. The supernatant was discarded again, a lysis buffer was added, and the cells were lysed on ice for 30 minutes. The cells were vortexed every 10 minutes to completely lyse, and centrifuged again at 10,000 rpm for 15 minutes at 4 °C., and the supernatant was collected. The protein in the supernatant was quantified using BCA technique, and the sample buffer was added to 20 μg of protein and allowed to react at 70 °C. for 5 minutes. The expression of PDHE1α S232, S293, S300, and total PDHE1α proteins was detected by Western blot, and the resulting PDH S293 phosphorylation inhibition is shown in Table 6.

Each structure is given as a SMILES string.

In the case of `CC(C(=O)NNc1ncc(C(F)(F)F)cc1Cl)n1cc(-c2cc(F)cc3c2-c2ccccc2C3(O)C(F)(F)F)cn1` (centres unmarked) [Compound 32, N′-(3-chloro-5-(trifluoromethyl)pyridin-2-yl)-2-(4-(2-fluoro-9-hydroxy-9-(trifluoromethyl)-9H-fluoren-4-yl)-1H-pyrazol-1-yl)propanehydrazide], the inhibition at 1 µM was no less than 50%.

For the molecule `COc1cc(-c2cnn(C(C)C(=O)NNc3ncc(C(F)(F)F)cc3Cl)c2)c2c(c1)C(O)(C(F)(F)F)c1ccccc1-2` (centres unmarked) [Compound 33, N′-(3-chloro-5-(trifluoromethyl)pyridin-2-yl)-2-(4-(9-hydroxy-2-methoxy-9-(trifluoromethyl)-9H-fluoren-4-yl)-1H-pyrazol-1-yl)propanehydrazide], the inhibition at 1 µM was no less than 50%.
